Earlier results in article PMC2791716 (Biotechnology and bioengineering, 2009).
Like-named read-outs stand apart in the source and are kept apart here.

Legend:
[1] = no reference given
[2] = system: cell adhesion to laminin-1; conditions: ref Nakahara et al. 1996

Row | Molecule | minimum effective therapeutic concentration ([1]; systemic delivery) [mg/kg] | minimum effective therapeutic concentration ([1]; systemic vascular concentration, converted from 50mg/kg) | inhibition of cell adhesion to laminin-1 [2] [%]
1 | COc1cccc2c1C(=O)c1c(O)c3c(c(O)c1C2=O)C[C@@](O)(C(=O)CO)C[C@@H]3O[C@H]1C[C@H](N)[C@H](O)[C@H](C)O1 [doxorubicin] | 50 | approximately 90 μM | –
2 | TWYKIAFQRNRK | – | – | 90
